What was measured:
[1] = biological target: Phospholipase A2 (Homo sapiens) (UniProt P04054); assay: Inhibition of PLA2 at 50 ug/ml
K562 = assay: Cytotoxicity against human K562 cells; assay type: functional; details: read-out: LC50 (the source's name)

Sequence of Phospholipase A2 (Homo sapiens) (P04054 23-148 limits assumed): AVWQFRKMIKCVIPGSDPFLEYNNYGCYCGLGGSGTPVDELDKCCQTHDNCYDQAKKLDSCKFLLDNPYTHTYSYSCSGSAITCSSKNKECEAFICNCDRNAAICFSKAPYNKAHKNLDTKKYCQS

| SMILES | inhibition [1] | CC50 (K562) |
| --- | --- | --- |
| C#C/C=C\CCCCCCCCCCCCCC/C=C\CCC/C=C/C(O)CCCCC#C[C@H](O)C#CCCCCCC/C=C/[C@@H](O)C#C (some centres undefined) [PETROCORTYNE E] | 48% | 7 µM |
| C#C/C=C\CCCCCCCCCCCCCC/C=C\CCCCC(O)/C=C/CCCC#C[C@H](O)C#CCCCCCC/C=C/[C@@H](O)C#C (some centres undefined) [PETROCORTYNE F] | 25% | 21 µM |
| C#C/C=C\CCCCCCCCCCCCC/C=C/C(O)CCCC/C=C\CCCCC#C[C@H](O)C#CCCCCCC/C=C/[C@@H](O)C#C (some centres undefined) [PETROCORTYNE G] | 36% | 30 µM |
| C#C/C=C\CCCCCCCCCCCCCC/C=C\CCCC/C=C\CCCCC#C[C@H](O)C#CCCCCCCCC[C@H](O)C#C [PETROCORTYNE D] | – | 45 µM |
| C#C/C=C\CCCCCCCCCCCCCCC(O)/C=C/CCC/C=C\CCCCC#C[C@H](O)C#CCCCCCC/C=C/[C@@H](O)C#C (some centres undefined) [PETROCORTYNE H] | 32% | 11 µM |

Reference: ChEMBL document CHEMBL1150963, “Five new polyacetylenes from a sponge of the genus petrosia” (1998)
